US11236084B2, “Substituted azaindoline derivatives as NIK inhibitors” (Janssen Pharmaceutica NV, priority 2017, dated 2022)
Read-outs that look alike come from different tables or passages of the source.

Key:
[1] = target: T1, recombinant human NF-kappaB-inducing kinase (NIK/MAP3K14) (Homo sapiens, UniProt Q99558); assay: Biological Assay B: inhibition of auto-phosphorylation of recombinant human NIK/MAP3K14 (AlphaScreen), performed at 2 locations; type: biochemical; conditions: averaged values
Procedure, shortened: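 GST-tagged NIK (0.2 nM) auto-phosphorylation with 25 microM ATP in 50 mM Tris pH 7.5, 5 mM MgCl2, 1% DMSO, 1 h at 25° C. Anti-phospho-IKK Ser176/180 AlphaScreen readout; blank-subtracted IC50 from sigmoidal fit. Run at two sites.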

[2] = tested on: P-IKKα levels in L363 (NIK translocated multiple myeloma) cells; assay: Biological Assay C: effect of compounds on P-IKKα levels in L363 (NIK translocated multiple myeloma) cells, performed at 2 locations; type: cell-based, human; conditions: averaged values
Procedure, shortened: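 Human L363 cells were primed 24 h with recombinant human BAFF, then treated 2 h with compound (8-point 1:3 dilutions, 1% DMSO) at 37 °C. IC50 came from a sigmoidal fit of % inhibition versus log concentration, determined at two sites.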

[3] = target: T1, recombinant human NF-kappaB-inducing kinase (NIK/MAP3K14); assay: Biological Assay A: inhibition of recombinant human NF-kappaB-inducing kinase (NIK/MAP3K14) activity (MBP phosphorylation, Mesoscale); conditions: MSD MBP; averaged over all measurements on all batches; read-out: Assay A Biochemical (MSD MBP) IC50
Description: Pharmacological Part Biological Assay A Inhibition of Recombinant Human NF-kappaB-Inducing Kinase (NIK/MAP3K14) Activity
Assay buffer was 50 mM Tris pH 7.5 containing 1 mM EGTA (ethylene glycol tetraacetic acid), 1 mM DTT (dithiothreitol), 0.1 mM Na3VO4, 5 mM MgCl2, 0.01% Tween® 20. Assays were carried out in 384 well Mesoscale high binding plates which had been coated with myelin basic protein (MBP) and blocked with bovine serum albumin to prevent non-specific protein binding. All compounds tested were dissolved in dimethyl sulfoxide (DMSO) and further dilutions were made in assay buffer. Final DMSO concentration was 1% (v/v) in assays. Incubations consisted of compound (1% DMSO in control and blank wells), 25 μM […] (ATP), and 10 nM NIK/MAP3K14 substituting enzyme with buffer in the blank wells. Incubations were carried out for 1 h at 25° C. and were followed by washing and sequential incubation with rabbit anti-phospho-MBP and anti-rabbit Ig Sulfotag antibody before reading bound Sulfotag on a Mesoscale Discovery. Signal obtained in the wells containing blank samples was subtracted from all other wells and […] were determined by fitting a sigmoidal curve to % inhibition of control versus Log10 compound concentration.
Data for the compounds of the invention in the above assays are provided in Table A (the values in Table are averaged values over all measurements on all batches of a compound; values as IC50 (nM)). (‘n.c.’ means not calculated: ‘Co.’ means compound)

[4] = location 1, NIK auto-phosphorylation, AlphaScreen, read-out: Assay B location 1 IC50
[5] = location 2, AlphaScreen auto-phosphorylation, read-out: Assay B location 2 IC50
[6] = Homo sapiens, L-363, location 2, L363 cells, P-IKKα levels, read-out: Assay C location 2 IC50

T1 sequence (Q99558 whole entry): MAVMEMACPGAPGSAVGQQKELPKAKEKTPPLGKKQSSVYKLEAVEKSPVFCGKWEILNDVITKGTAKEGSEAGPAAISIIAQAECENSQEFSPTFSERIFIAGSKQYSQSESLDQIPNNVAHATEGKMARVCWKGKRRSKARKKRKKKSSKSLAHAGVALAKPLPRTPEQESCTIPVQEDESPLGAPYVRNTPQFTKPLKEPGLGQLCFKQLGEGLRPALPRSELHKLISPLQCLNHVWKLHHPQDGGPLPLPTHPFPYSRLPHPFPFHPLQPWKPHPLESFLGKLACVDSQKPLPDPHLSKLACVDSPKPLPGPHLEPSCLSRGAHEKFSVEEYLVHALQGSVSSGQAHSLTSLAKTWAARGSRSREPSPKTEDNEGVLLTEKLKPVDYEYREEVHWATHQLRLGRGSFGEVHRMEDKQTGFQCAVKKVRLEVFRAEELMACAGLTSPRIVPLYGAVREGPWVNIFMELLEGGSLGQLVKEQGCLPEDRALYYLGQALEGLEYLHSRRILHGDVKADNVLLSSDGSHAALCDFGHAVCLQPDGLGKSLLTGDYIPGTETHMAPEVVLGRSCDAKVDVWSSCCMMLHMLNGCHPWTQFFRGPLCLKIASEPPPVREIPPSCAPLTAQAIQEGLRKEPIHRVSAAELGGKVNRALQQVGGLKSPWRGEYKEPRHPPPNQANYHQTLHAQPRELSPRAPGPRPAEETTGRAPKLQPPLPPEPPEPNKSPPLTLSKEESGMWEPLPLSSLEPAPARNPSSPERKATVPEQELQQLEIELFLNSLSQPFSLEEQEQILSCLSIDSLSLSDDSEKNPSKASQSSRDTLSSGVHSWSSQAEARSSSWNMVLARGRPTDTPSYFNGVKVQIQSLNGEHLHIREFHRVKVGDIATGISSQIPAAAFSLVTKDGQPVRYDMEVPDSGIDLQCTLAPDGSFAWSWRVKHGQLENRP

| Compound | IC50 [1, 4] [nM] | IC50 ([2]; location 1, P-IKKα levels in L363 cells, 2 hr treatment, read-out: Assay C location 1 IC50) [nM] | melting point [°C] | IC50 [1, 5] [nM] | IC50 [2, 6] [nM] | IC50 [3] [nM] |
| --- | --- | --- | --- | --- | --- | --- |
| COc1cc(C(=O)NC2CCOCC2)ccc1Nc1ncc(F)c(-c2cnc3c(c2)C(C)(CO)CN3)n1 (single isomer, unassigned) [Compound 349] | 3.6 |  | > 250 |  |  |  |
| Cc1cc(C(=O)N2CCS(=O)(=O)CC2)ccc1Nc1nccc(-c2cnc3c(c2)C(C)(CO)CN3)n1 (stereo not shown) [Compound 134] |  |  |  | 4.4 | 776 | 3.9 |
| COc1ccc(Cl)cc1Nc1nccc(-c2cnc3c(c2)C(C)(C)CN3)n1 [Compound 353] | 72.4 |  | 210 |  |  |  |
| COc1ccc(Cl)cc1Nc1nccc(-c2cnc3c(c2)C(C)(CO)CN3)n1 (stereo not shown) [Compound 354] | 3 |  | 236 |  |  |  |
| Cc1ccc(Cl)cc1Nc1nccc(-c2cnc3c(c2)C(C)(CO)CN3)n1 (stereo not shown) [Compound 355] | 2.5 |  | 221 |  |  |  |
| COCCOc1ccc(Cl)cc1Nc1nccc(-c2cnc3c(c2)C(C)(CO)CN3)n1 (stereo not shown) [Compound 356] | 24.6 |  | 208 |  |  |  |
| CC(=O)NCc1cccc(Nc2nccc(-c3cnc4c(c3)C(C)(CO)CN4)n2)c1C (stereo not shown) [Compound 360] |  |  |  | 33.9 | 912 | 77.6 |

The remaining lines, values ahead:

| IC50 [1, 4] [nM] | IC50 ([2]; location 1, P-IKKα levels in L363 cells, 2 hr treatment, read-out: Assay C location 1 IC50) [nM] | melting point [°C] | IC50 [1, 5] [nM] | IC50 [2, 6] [nM] | IC50 [3] [nM] | Compound |
| --- | --- | --- | --- | --- | --- | --- |
| 3.2 | 19.1 | > 260 |  |  |  | COc1cc(N2CCC(O)CC2)c(Cl)cc1Nc1nccc(-c2cnc3c(c2)C(C)(CO)CN3)n1 (single isomer, unassigned) [Compound 16] |
| 144 |  | > 250 |  |  |  | COc1cc(N2CC3(CCOCC3)C2)c(Cl)cc1Nc1ncc(Cl)c(-c2cnc3c(c2)C(C)(CO)CN3)n1 (single isomer, unassigned) [Compound 347] |
| 295 |  | > 250 |  |  |  | COc1cc(C(=O)NC2CCOCC2)ccc1Nc1ncc(Cl)c(-c2cnc3c(c2)C(C)(CO)CN3)n1 (single isomer, unassigned) [Compound 350] |
| 19.1 |  | > 250 |  |  |  | COc1cc(N2CC3(CCOCC3)C2)c(Cl)cc1Nc1ncc(F)c(-c2cnc3c(c2)C(C)(CO)CN3)n1 (stereo not shown) [Compound 345] |
